Results: article PMC8402619 (Viruses, 2021)

Tests used:
[1] = Renal clearance after 1 mg/kg intravenous, rabbit; assay type: in vivo, female Dutch Belted rabbits; details: 1 mg/kg intravenously
[2] = Renal clearance after 1 mg/kg intravenous, monkey; assay type: in vivo, rhesus monkeys; details: rhesus monkey, 1 mg/kg intravenously
[3] = target: T1, CYP2B6 (Homo sapiens, UniProt P20813); assay: Reversible CYP inhibition in pooled human liver microsomes; assay type: in vitro ADME
T1 sequence (P20813 1-491): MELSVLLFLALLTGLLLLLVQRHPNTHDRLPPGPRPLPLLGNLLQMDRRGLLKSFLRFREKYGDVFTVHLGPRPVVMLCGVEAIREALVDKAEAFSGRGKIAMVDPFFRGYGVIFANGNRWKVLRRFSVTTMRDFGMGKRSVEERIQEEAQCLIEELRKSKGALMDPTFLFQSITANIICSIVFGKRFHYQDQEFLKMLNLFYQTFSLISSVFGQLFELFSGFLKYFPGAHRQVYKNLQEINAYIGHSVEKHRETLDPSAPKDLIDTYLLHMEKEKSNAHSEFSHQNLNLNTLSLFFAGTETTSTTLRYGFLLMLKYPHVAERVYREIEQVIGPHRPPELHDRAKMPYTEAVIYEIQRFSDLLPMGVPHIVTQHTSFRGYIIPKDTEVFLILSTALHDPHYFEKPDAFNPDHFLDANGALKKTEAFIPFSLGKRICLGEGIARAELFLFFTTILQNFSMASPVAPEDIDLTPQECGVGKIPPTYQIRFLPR

[4] = target: T2, OATP1B1 (Homo sapiens, UniProt Q9Y6L6); assay: Inhibition of transporter-mediated probe uptake in HEK293-OATP1B1 cells; assay type: in vitro ADME
T2 construct: host or cells: HEK293
T2 sequence (Q9Y6L6 1-691): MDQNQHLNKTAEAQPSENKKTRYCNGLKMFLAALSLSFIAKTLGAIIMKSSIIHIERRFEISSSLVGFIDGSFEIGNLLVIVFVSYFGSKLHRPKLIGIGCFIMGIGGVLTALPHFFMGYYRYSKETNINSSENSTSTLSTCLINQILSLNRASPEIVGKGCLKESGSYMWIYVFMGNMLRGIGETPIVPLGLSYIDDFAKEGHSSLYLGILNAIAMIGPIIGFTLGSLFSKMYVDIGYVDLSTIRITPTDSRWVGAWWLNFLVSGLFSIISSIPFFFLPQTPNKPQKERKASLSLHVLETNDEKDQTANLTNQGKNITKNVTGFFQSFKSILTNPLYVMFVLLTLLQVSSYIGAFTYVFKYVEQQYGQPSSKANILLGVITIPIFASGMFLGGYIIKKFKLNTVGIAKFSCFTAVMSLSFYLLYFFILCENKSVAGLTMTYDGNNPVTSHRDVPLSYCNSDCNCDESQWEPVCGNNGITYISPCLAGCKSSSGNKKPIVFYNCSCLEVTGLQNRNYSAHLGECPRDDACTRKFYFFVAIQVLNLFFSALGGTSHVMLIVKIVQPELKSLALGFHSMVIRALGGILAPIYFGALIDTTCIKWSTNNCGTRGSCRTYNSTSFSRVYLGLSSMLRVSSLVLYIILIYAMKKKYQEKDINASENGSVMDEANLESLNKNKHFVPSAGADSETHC

[5] = target: T3, OCT2 (Homo sapiens, UniProt O15244); assay: Islatravir uptake as substrate, CHO-K1 vs CHO-K1-OCT2 cells; assay type: in vitro ADME
T3 construct: expressed in transfected cells; host or cells: CHO-K1
T3 sequence (O15244 1-555): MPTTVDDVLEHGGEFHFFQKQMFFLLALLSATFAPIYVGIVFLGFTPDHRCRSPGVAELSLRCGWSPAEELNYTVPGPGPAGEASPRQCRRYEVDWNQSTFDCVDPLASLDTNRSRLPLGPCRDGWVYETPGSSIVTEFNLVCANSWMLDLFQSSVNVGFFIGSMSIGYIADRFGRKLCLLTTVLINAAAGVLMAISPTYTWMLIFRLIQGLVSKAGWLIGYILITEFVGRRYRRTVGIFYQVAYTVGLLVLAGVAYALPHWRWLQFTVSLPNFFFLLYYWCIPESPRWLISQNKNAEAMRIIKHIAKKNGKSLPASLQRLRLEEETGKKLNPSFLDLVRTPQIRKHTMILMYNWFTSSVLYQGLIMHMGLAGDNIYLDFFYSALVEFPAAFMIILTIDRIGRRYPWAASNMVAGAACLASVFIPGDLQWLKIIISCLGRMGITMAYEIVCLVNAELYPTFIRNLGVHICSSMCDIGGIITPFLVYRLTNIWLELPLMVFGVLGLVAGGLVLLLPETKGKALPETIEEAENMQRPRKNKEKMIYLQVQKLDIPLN

[6] = target: T4, OAT1 (Homo sapiens, UniProt Q4U2R8); assay: Islatravir uptake as substrate, MDCKII vs MDCKII-OAT1 cells; assay type: in vitro ADME
T4 construct: expressed in transfected cells; host or cells: MDCKII
T4 sequence (Q4U2R8 1-563): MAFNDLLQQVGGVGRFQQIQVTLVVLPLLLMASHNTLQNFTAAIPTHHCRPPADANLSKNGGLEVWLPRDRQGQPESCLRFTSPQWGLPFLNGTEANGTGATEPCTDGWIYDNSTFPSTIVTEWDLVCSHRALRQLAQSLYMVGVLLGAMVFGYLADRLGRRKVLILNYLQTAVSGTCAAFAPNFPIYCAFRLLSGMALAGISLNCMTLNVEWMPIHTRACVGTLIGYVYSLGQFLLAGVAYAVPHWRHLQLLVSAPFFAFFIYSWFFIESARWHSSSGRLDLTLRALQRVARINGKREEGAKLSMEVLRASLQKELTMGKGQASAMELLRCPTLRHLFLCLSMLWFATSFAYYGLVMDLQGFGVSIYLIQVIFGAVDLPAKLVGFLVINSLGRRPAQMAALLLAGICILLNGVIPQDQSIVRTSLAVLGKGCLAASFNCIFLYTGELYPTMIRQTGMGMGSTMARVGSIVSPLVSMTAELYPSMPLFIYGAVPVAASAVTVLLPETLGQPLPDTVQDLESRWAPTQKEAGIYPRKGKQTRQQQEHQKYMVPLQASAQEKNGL

C#C[C@]1(CO)O[C@@H](n2cnc3c(N)nc(F)nc32)C[C@@H]1O [Islatravir, 4′-Ethynyl-2-fluoro-2′-deoxyadenosine]
Renal Excretion (% Total Plasma Clearance) [1]: 31% | CL renal ([1]; female, Dutch Belted, plasma and urine, iv, urine 0-48 h): 5.3 mL/min/kg | CL renal ([2]; plasma and urine, iv, urine 0-24 h): 8.7 mL/min/kg | Renal Excretion (% Total Plasma Clearance) [2]: 51% | DDI Potential ([3]; CYP2B6 reversible inhibition, FDA, EMA, PMDA guidance): Low risk | Maximum Unbound Plasma Concentration (Imax,u) to Ki,u Ratio ([3]; CYP2B6 reversible, 60 mg, Cmax 1.01 µM, fu,p 0.96, Ki,u = IC50/2): <0.019 µM | IC50 ([3]; reversible, CYP2B6 bupropion hydroxylation, read-out: Islatravir IC50): > 100 µM | IC50 ([4]; OATP1B1-mediated uptake of pitavastatin, read-out: Islatravir IC50): > 300 µM | Maximum Unbound Inlet Concentration (Iin,max,u) to IC50 Ratio ([4]; OATP1B1, 60 mg dose): <0.035 | DDI Potential ([4]; OATP1B1 inhibition, FDA, EMA, PMDA guidance): Low risk | Islatravir Uptake Transporter-Expressing Cells ([5]; CHO-K1-OCT2, 1 µM [3H]islatravir, 5 min, mean ± SD, n = 3): 0.79 ± 0.14 pmole/10^6 Cells | Fold-Difference ([5]; OCT2, uptake into transporter-expressing cells to control cells, 5 min): 0.81 | Islatravir Uptake Control Cells ([5]; OCT2 row, CHO-K1 control cells, 1 µM [3H]islatravir, 5 min, mean ± SD, n = 3): 0.97 ± 0.01 pmole/10^6 Cells | Conclusions ([5]; OCT2 substrate assessment): Non-substrate | Islatravir Uptake Transporter-Expressing Cells ([6]; MDCKII-OAT1, 1 µM [3H]islatravir, 5 min, mean ± SD, n = 3): 0.72 ± 0.04 pmole/10^6 Cells | Fold-Difference ([6]; OAT1, uptake into transporter-expressing cells to control cells, 5 min): 1.04 | Islatravir Uptake Control Cells ([6]; OAT1 row, MDCKII control cells, 1 µM [3H]islatravir, 5 min, mean ± SD, n = 3): 0.69 ± 0.07 pmole/10^6 Cells | Conclusions ([6]; OAT1 substrate assessment): Non-substrate
